According to article PMC8406298, “Discovery of Fungus-Specific Targets and Inhibitors Using Chemical Phenotyping of Pathogenic Spore Germination” (mBio, 2021):

Legend:
[1] = system: normal human dermal fibroblasts (NHDF) cells; assay: Fibroblast cytotoxicity (CellTiter-Glo); assay type: cell-based; settings: 10 µM
How it was run: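 Normal human dermal fibroblasts, 1 × 10^3 per well, exposed to compounds at 10 μM for 72 h at 37°C. Viability read as ATP-dependent CellTiter-Glo luminescence. Dose-response runs titrated compounds from 80 μM to 0.5 μM in duplicate.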

[2] = system: Cryptococcus yeast (CHY3833 and CHY3836); assay: Yeast replication secondary screen (OD600); assay type: cell-based, Cryptococcus neoformans serotype D (deneoformans); settings: 10 μM, 12 h at 30°C
Procedure: (ii) Yeast replication. CHY3833 and CHY3836 were each grown in YPD liquid overnight at 30°C to saturation and then resuspended in 0.5× YPD at an OD600 of 0.005. Strains were aliquoted into 384-well plates with inhibitors and grown for 12 h at 30°C at […] before OD600 readings were taken. Compounds that caused a >10% decrease in growth were considered yeast growth inhibitors.

Cc1ccc2nc(Nc3ccncc3)nc(-c3ccccc3)c2c1 [compound 3516311] was tested, and the “Cytotoxicity: Relative Cell Viability (% of Negative Control)” value [1] was 72.7 % of Negative Control and the “Yeast Inhibition: % Inhibition” value [2] was 20.1%.

For N#Cc1nc2c(nc1C#N)-c1ccccc1C2=O [compound 292929], the “Cytotoxicity: Relative Cell Viability (% of Negative Control)” value [1] was 5.9 % of Negative Control and the “Yeast Inhibition: % Inhibition” value [2] was 100.6%.

O=C(Nc1cccc(C(F)(F)F)c1)C(Cl)C(=O)c1ccccc1 (centres unmarked) [compound 4162926] was tested, and the “Cytotoxicity: Relative Cell Viability (% of Negative Control)” value [1] was 20.8 % of Negative Control and the “Yeast Inhibition: % Inhibition” value [2] was 101.5%.

For O=C(NCCOc1ccc(F)cc1)c1ccc(C(F)(F)F)cc1 [compound 30865811], the “Cytotoxicity: Relative Cell Viability (% of Negative Control)” value [1] was 100.1 % of Negative Control and the “Yeast Inhibition: % Inhibition” value [2] was 68.2%.

With CC(C)(c1ccc(O)cc1)c1ccc(Cl)cc1 [compound 1992009] the “Cytotoxicity: Relative Cell Viability (% of Negative Control)” value [1] was 2.1 % of Negative Control and the “Yeast Inhibition: % Inhibition” value [2] was 96.6%.

With O=C(COc1coc(CN2CCc3ccccc32)cc1=O)OCc1ccccc1 [compound 7178481] the “Cytotoxicity: Relative Cell Viability (% of Negative Control)” value [1] was 88.3 % of Negative Control and the “Yeast Inhibition: % Inhibition” value [2] was 15.8%.

In the case of C/C=C/c1ccc(OCCn2cnc3ccccc32)c(OC)c1 [compound 5769972], the “Cytotoxicity: Relative Cell Viability (% of Negative Control)” value [1] is reported as 97.3 % of Negative Control and the “Yeast Inhibition: % Inhibition” value [2] is reported as 79.1%.

For O=C(Nc1nc2c(Br)cccc2s1)C1CC1 [compound 7202929], the “Cytotoxicity: Relative Cell Viability (% of Negative Control)” value [1] was 66.1 % of Negative Control and the “Yeast Inhibition: % Inhibition” value [2] was 16.5%.

For CCOC(=O)N1CCN(C(c2ccccn2)c2c(-c3ccccc3)n(O)c3ccccc23)CC1 (centres unmarked) [compound 4081132], the “Cytotoxicity: Relative Cell Viability (% of Negative Control)” value [1] was 84.9 % of Negative Control and the “Yeast Inhibition: % Inhibition” value [2] was 101.5%.

O=C(CCc1ccccc1Br)N1CCC(c2ccsc2)CC1 [compound 71807075] was tested, and the “Cytotoxicity: Relative Cell Viability (% of Negative Control)” value [1] was 93.1 % of Negative Control and the “Yeast Inhibition: % Inhibition” value [2] was 9.6%.

With COc1cc(-c2c(C#N)c(N)nc3c2c(C)nn3-c2ccc(C)cc2)cc(OC)c1OC [compound 4893324] the “Cytotoxicity: Relative Cell Viability (% of Negative Control)” value [1] was 84.7 % of Negative Control and the “Yeast Inhibition: % Inhibition” value [2] was -3.0%.

CCOC(=O)c1ccc(N2C(=O)CC(SCC(=O)Nc3ccc(S(N)(=O)=O)cc3)C2=O)cc1 (centres unmarked) [compound 16187117] was tested, and the “Cytotoxicity: Relative Cell Viability (% of Negative Control)” value [1] was 118.0 % of Negative Control and the “Yeast Inhibition: % Inhibition” value [2] was 83.7%.

Cc1cc(C(=O)NCC#CCOc2cccc(C(F)(F)F)c2)c(C)o1 [compound 71803023] was tested, and the “Cytotoxicity: Relative Cell Viability (% of Negative Control)” value [1] was 90.7 % of Negative Control and the “Yeast Inhibition: % Inhibition” value [2] was 44.0%.

ClC1(Cl)CC1Cn1cnc2ccccc21 (centres unmarked) [compound 2936975] was tested, and the “Cytotoxicity: Relative Cell Viability (% of Negative Control)” value [1] was 93.7 % of Negative Control and the “Yeast Inhibition: % Inhibition” value [2] was 49.3%.

In the case of Cc1ccccc1CSc1n[nH]c(=O)c2cc(-c3ccco3)nn12 [compound 27373907], the “Cytotoxicity: Relative Cell Viability (% of Negative Control)” value [1] is reported as 97.6 % of Negative Control and the “Yeast Inhibition: % Inhibition” value [2] is reported as 49.7%.

CN(C)CCN(C(=O)c1c[nH]c2ccccc12)c1nc2ccc(OC(F)(F)F)cc2s1.Cl [compound 71782913] was tested, and the “Cytotoxicity: Relative Cell Viability (% of Negative Control)” value [1] was 66.6 % of Negative Control and the “Yeast Inhibition: % Inhibition” value [2] was 99.5%.

In the case of O=Cc1sc(=O)n(-c2ccccc2)c1Cl [compound 2793380], the “Cytotoxicity: Relative Cell Viability (% of Negative Control)” value [1] is reported as 5.7 % of Negative Control and the “Yeast Inhibition: % Inhibition” value [2] is reported as 78.0%.

O=C(CSc1ccc(F)cc1)N1CCC(c2ccsc2)CC1 [compound 71786989] was tested, and the “Cytotoxicity: Relative Cell Viability (% of Negative Control)” value [1] was 102.2 % of Negative Control and the “Yeast Inhibition: % Inhibition” value [2] was 16.0%.

With CN(C)c1ccc(NC(=O)/C=C/c2ccccc2Cl)cc1 [compound 723732] the “Cytotoxicity: Relative Cell Viability (% of Negative Control)” value [1] was 79.8 % of Negative Control and the “Yeast Inhibition: % Inhibition” value [2] was 27.8%.

For Cc1cccc(CC(=O)Nc2cc(C)ns2)c1 [compound 49722107], the “Cytotoxicity: Relative Cell Viability (% of Negative Control)” value [1] was 98.5 % of Negative Control and the “Yeast Inhibition: % Inhibition” value [2] was 32.6%.

For CCC(OCC(O)CN1CCC(Cc2ccccc2)CC1)c1ccccc1 (centres unmarked) [compound 4471873], the “Cytotoxicity: Relative Cell Viability (% of Negative Control)” value [1] was 78.8 % of Negative Control and the “Yeast Inhibition: % Inhibition” value [2] was 82.2%.

For Cc1cc(C(=O)NCCc2nc3c(c(C(F)(F)F)n2)COCC3)c(C)o1 [compound 91629266], the “Cytotoxicity: Relative Cell Viability (% of Negative Control)” value [1] was 103.1 % of Negative Control and the “Yeast Inhibition: % Inhibition” value [2] was 31.5%.

CCCOc1ccc(CSc2nc3ccccc3[nH]2)cc1 [compound 1653621] was tested, and the “Cytotoxicity: Relative Cell Viability (% of Negative Control)” value [1] was 75.1 % of Negative Control and the “Yeast Inhibition: % Inhibition” value [2] was 77.4%.

For O=Cc1sc(=O)n(Cc2ccccc2)c1Cl [compound 820752], the “Cytotoxicity: Relative Cell Viability (% of Negative Control)” value [1] was 115.4 % of Negative Control and the “Yeast Inhibition: % Inhibition” value [2] was 101.8%.

O=C(CSCc1ccccc1)N1CCC(c2cccs2)CC1 [compound 71786876] was tested, and the “Cytotoxicity: Relative Cell Viability (% of Negative Control)” value [1] was 97.1 % of Negative Control and the “Yeast Inhibition: % Inhibition” value [2] was 12.2%.

For Cc1nc(C)c(C(=O)NCCn2ncc3c(N4CCN(c5ccc(F)cc5)CC4)ncnc32)s1 [compound 42099839], the “Cytotoxicity: Relative Cell Viability (% of Negative Control)” value [1] was 79.3 % of Negative Control and the “Yeast Inhibition: % Inhibition” value [2] was 43.6%.

O=S(=O)(Nc1ccc(Br)cc1F)c1cccc(Cl)c1 [compound 983861] was tested, and the “Cytotoxicity: Relative Cell Viability (% of Negative Control)” value [1] was 101.6 % of Negative Control and the “Yeast Inhibition: % Inhibition” value [2] was 55.6%.

For CC1CNc2ccccc2N(Cc2ccc(Br)cc2)C1=O (centres unmarked) [compound 20896311], the “Cytotoxicity: Relative Cell Viability (% of Negative Control)” value [1] was 94.5 % of Negative Control and the “Yeast Inhibition: % Inhibition” value [2] was 5.6%.

For CN1C(=O)c2cccc(NC(=O)c3ccnn3C)c2C1=O [compound 25835862], the “Cytotoxicity: Relative Cell Viability (% of Negative Control)” value [1] was 104.6 % of Negative Control and the “Yeast Inhibition: % Inhibition” value [2] was 41.6%.

COc1ccc(-c2noc(CSc3nc4ccsc4c(=O)n3C)n2)cc1 [compound 27373469] was tested, and the “Cytotoxicity: Relative Cell Viability (% of Negative Control)” value [1] was 109.3 % of Negative Control and the “Yeast Inhibition: % Inhibition” value [2] was 33.0%.

CC(C)(C)NCC(O)COc1ccc(C23CC4CC(CC(C4)C2)C3)cc1 (centres unmarked) [compound 2769740] was tested, and the “Cytotoxicity: Relative Cell Viability (% of Negative Control)” value [1] was 2.7 % of Negative Control and the “Yeast Inhibition: % Inhibition” value [2] was 101.5%.

With O=C(COc1ccc2ccccc2c1)NCC1COC2(CCCC2)O1 (centres unmarked) [compound 16823609] the “Cytotoxicity: Relative Cell Viability (% of Negative Control)” value [1] was 99.9 % of Negative Control and the “Yeast Inhibition: % Inhibition” value [2] was 2.4%.

CCOC(=O)c1c(-c2ccc(C)o2)csc1NC(=O)c1ccc2c(c1)OCCO2 [compound 1186249] was tested, and the “Cytotoxicity: Relative Cell Viability (% of Negative Control)” value [1] was 75.3 % of Negative Control and the “Yeast Inhibition: % Inhibition” value [2] was 44.6%.

COc1ccc2nc(N3CCCC(C(=O)O)C3)sc2c1 (centres unmarked) [compound 53212169] was tested, and the “Cytotoxicity: Relative Cell Viability (% of Negative Control)” value [1] was 105.4 % of Negative Control and the “Yeast Inhibition: % Inhibition” value [2] was -17.8%.

Cc1noc(C)c1C(=O)N1CCN(c2ccc(-c3noc(C(C)C)n3)cn2)CC1 [compound 49701731] was tested, and the “Cytotoxicity: Relative Cell Viability (% of Negative Control)” value [1] was 102.2 % of Negative Control and the “Yeast Inhibition: % Inhibition” value [2] was 1.4%.

Cc1nc(-c2ccc(F)cc2)sc1CCNC(=O)c1ccc(Br)o1 [compound 7503016] was tested, and the “Cytotoxicity: Relative Cell Viability (% of Negative Control)” value [1] was 97.2 % of Negative Control and the “Yeast Inhibition: % Inhibition” value [2] was 20.4%.

For CCCCNC(=O)COc1c(C)cc(Br)cc1C [compound 1570496], the “Cytotoxicity: Relative Cell Viability (% of Negative Control)” value [1] was 84.5 % of Negative Control and the “Yeast Inhibition: % Inhibition” value [2] was 47.1%.

With C[n+]1sc(Nc2ccccc2)nc1-c1ccccc1 [compound 803194] the “Cytotoxicity: Relative Cell Viability (% of Negative Control)” value [1] was 16.5 % of Negative Control and the “Yeast Inhibition: % Inhibition” value [2] was 98.4%.

COc1cccc2cc(-c3csc(NN=C4CCN(C)CC4)n3)c(=O)oc12 [compound 4913014] was tested, and the “Cytotoxicity: Relative Cell Viability (% of Negative Control)” value [1] was 68.7 % of Negative Control and the “Yeast Inhibition: % Inhibition” value [2] was 99.6%.

For Cc1ccccc1OCCn1cnc2ccccc21 [compound 749608], the “Cytotoxicity: Relative Cell Viability (% of Negative Control)” value [1] was 96.0 % of Negative Control and the “Yeast Inhibition: % Inhibition” value [2] was 75.5%.

With O=C1c2ccccc2S(=O)(=O)N1CC(O)COc1ccc(Cl)cc1Cl (centres unmarked) [compound 2943193] the “Cytotoxicity: Relative Cell Viability (% of Negative Control)” value [1] was 90.5 % of Negative Control and the “Yeast Inhibition: % Inhibition” value [2] was 57.4%.

For O=C(/C=C/c1cccc(F)c1)c1cccs1 [compound 7185494], the “Cytotoxicity: Relative Cell Viability (% of Negative Control)” value [1] was 45.7 % of Negative Control and the “Yeast Inhibition: % Inhibition” value [2] was 101.7%.

With Cc1ccccc1OCCSCc1nc2ccccc2[nH]1 [compound 1589778] the “Cytotoxicity: Relative Cell Viability (% of Negative Control)” value [1] was 86.0 % of Negative Control and the “Yeast Inhibition: % Inhibition” value [2] was 72.5%.

Nc1c(-c2ccccc2)sc2nc(-c3ccccc3)cc[n+]12 [compound 4458495] was tested, and the “Cytotoxicity: Relative Cell Viability (% of Negative Control)” value [1] was 52.5 % of Negative Control and the “Yeast Inhibition: % Inhibition” value [2] was 87.8%.

COc1cc(NS(=O)(=O)c2cccc(C(F)(F)F)c2)ncn1 [compound 71795763] was tested, and the “Cytotoxicity: Relative Cell Viability (% of Negative Control)” value [1] was 90.4 % of Negative Control and the “Yeast Inhibition: % Inhibition” value [2] was -14.5%.

In the case of Oc1ccc(-c2ccccc2)cc1Br [compound 27297], the “Cytotoxicity: Relative Cell Viability (% of Negative Control)” value [1] is reported as 4.7 % of Negative Control and the “Yeast Inhibition: % Inhibition” value [2] is reported as 101.8%.

O=C(C1CCC1)N(Cc1cccnc1)c1nc2ccc(Cl)cc2s1 [compound 43967671] was tested, and the “Cytotoxicity: Relative Cell Viability (% of Negative Control)” value [1] was 97.1 % of Negative Control and the “Yeast Inhibition: % Inhibition” value [2] was 78.9%.

With COc1ccc(-c2noc(-c3cc(-c4cc(C)ccc4C)n[nH]3)n2)cc1OC [compound 27375613] the “Cytotoxicity: Relative Cell Viability (% of Negative Control)” value [1] was 94.0 % of Negative Control and the “Yeast Inhibition: % Inhibition” value [2] was 9.4%.

COc1ccc(SCCCC(=O)Nc2ncnc3sccc23)cc1 [compound 18585630] was tested, and the “Cytotoxicity: Relative Cell Viability (% of Negative Control)” value [1] was 104.7 % of Negative Control and the “Yeast Inhibition: % Inhibition” value [2] was 15.2%.
